The source of these data is paper PMC8518806 (2021).

Test [1] concerns BeCA (RNA8-2) (RNA, aptamer) GGAGGUACGUGGACUGCUUAUGCAGUAGGAAGGCCUCC
Nature of the test: fluorescence turn-on titration (NIR). As to conditions: 125 mM KCl, 5 mM MgCl2; 20 mM Hepes pH 7.4; 100 nM BC6.

The subject of test [2] is M10 (RNA, aptamer) GGAGGUACGUGGACUGCUUAUGCAGUAGGAAGCCUCC
Nature of the test: fluorescence turn-on titration. As to conditions: 125 mM KCl, 5 mM MgCl2; 20 mM Hepes pH 7.4; 100 nM BC1-DN.

For test [3], the system named is M11 (RNA, aptamer) GGAGGUACGUGGGCUGCUUAUGCAGCAGGAAGGCCUCC
Nature of the test: fluorescence turn-on titration. As to conditions: 125 mM KCl, 5 mM MgCl2; 20 mM Hepes pH 7.4; 100 nM BC1-DN.

Test [4] deals with M6 (RNA, aptamer) GGAAAUACGUGGACUGCUUAUGCAGUAGGAAGGUUUCC
Nature of the test: fluorescence turn-on titration. The settings on record: 125 mM KCl, 5 mM MgCl2; 20 mM Hepes pH 7.4; 100 nM BC1-DN.

In test [5] the test system is M7 (RNA, aptamer) GGAGUACGUGGACUGCUUAUGCAGUAGGAAGGCUCC
Nature of the test: fluorescence turn-on titration. The settings on record: 125 mM KCl, 5 mM MgCl2; 20 mM Hepes pH 7.4; 100 nM BC1-DN.

Test [6] has as its system M1 (RNA, aptamer) GGAGGCACGUGGACUGCUUAUGCAGUAGGAAGGCCUCC
Nature of the test: fluorescence turn-on titration. As to conditions: 125 mM KCl, 5 mM MgCl2; 20 mM Hepes pH 7.4; 100 nM BC1-DN.

Test [7] deals with M5 (RNA, aptamer) GGAGGUACGUGGACUGCUUAUGCAGUAGGAAGUCCUCC
Kind of test: fluorescence turn-on titration. As to conditions: 125 mM KCl, 5 mM MgCl2; 20 mM Hepes pH 7.4; 100 nM BC1-DN.

The subject of test [8] is M2 (RNA, aptamer) GGAGGGACGUGGACUGCUUAUGCAGUAGGAAGCCCUCC
Nature of the test: fluorescence turn-on titration. As to conditions: 125 mM KCl, 5 mM MgCl2; 20 mM Hepes pH 7.4; 100 nM BC1-DN.

The test system of test [9] is M4 (RNA, aptamer) GGAGGUACGUGGACUGCUUAUGCAGUAGGAAGCCCUCC
Nature of the test: fluorescence turn-on titration. As to conditions: 125 mM KCl, 5 mM MgCl2; 20 mM Hepes pH 7.4; 100 nM BC1-DN.

Test [10] concerns RNA8-3 (RNA, aptamer) GGAGGUACGUGGAUAGGAAGGCCUCC
Nature of the test: fluorescence turn-on titration. As to conditions: 125 mM KCl, 5 mM MgCl2; 20 mM Hepes pH 7.4; 100 nM BC1-DN.

The subject of test [11] is M9 (RNA, aptamer) GGAGGUAGUGGACUGCUUAUGCAGUAGGAAGGCCUCC
Kind of test: fluorescence turn-on titration. The settings on record: 125 mM KCl, 5 mM MgCl2; 20 mM Hepes pH 7.4; 100 nM BC1-DN.

Test [12] concerns RNA8-1 (RNA, aptamer) GGAGGCAGGGCUUAGUUGAGGUACGUGGACUGCUUAUGCAGUAGGAAGGCCUCACUUUUCCGCCGUUGGCACCAC
Nature of the test: fluorescence turn-on titration. The settings on record: 125 mM KCl, 5 mM MgCl2; 20 mM Hepes pH 7.4; 100 nM BC1-DN.

Test [13] concerns M8 (RNA, aptamer) GGAGGUCGUGGACUGCUUAUGCAGUAGGAAGGCCUCC
Nature of the test: fluorescence turn-on titration. The settings on record: 125 mM KCl, 5 mM MgCl2; 20 mM Hepes pH 7.4; 100 nM BC1-DN.

Test [14] has as its system M12 (RNA, aptamer) GGAGGUACGUGGACUGCUUCGGCAGUAGGAAGGCCUCC
Nature of the test: fluorescence turn-on titration. As to conditions: 125 mM KCl, 5 mM MgCl2; 20 mM Hepes pH 7.4; 100 nM BC1-DN.

Test [15] concerns BeCA (RNA8-2) (RNA, aptamer) GGAGGUACGUGGACUGCUUAUGCAGUAGGAAGGCCUCC
Nature of the test: fluorescence turn-on titration. The settings on record: 125 mM KCl, 5 mM MgCl2; 20 mM Hepes pH 7.4; 100 nM BC1-DN.

The subject of test [16] is M3 (RNA, aptamer) GGAGGUACGUGGACUGCUUAUGCAGUAGGAAGACCUCC
Nature of the test: fluorescence turn-on titration. As to conditions: 125 mM KCl, 5 mM MgCl2; 20 mM Hepes pH 7.4; 100 nM BC1-DN.

Consider `CN(C)c1ccc2c(c1)OC(c1cc3ccc(N(C)C)cc3oc1=O)=CC21c2ccccc2C(=O)N1C#N` (stereo not shown), for which the “KD” value in [1] was 0.22 µM.
On to `CN(C)c1ccc2cc(-c3cc(-c4ccc(C(=O)NCCOCCOCCNc5ccc([N+](=O)[O-])cc5[N+](=O)[O-])cc4C(=O)[O-])c4ccc(N(C)C)cc4[o+]3)c(=O)oc2c1`, for which the dissociation constant KD in test [2] is on record as 0.77 ± 0.18 µM; in test [3], 0.27 ± 0.08 µM; in [4] it was 0.35 ± 0.05 µM; in test [5], 0.20 ± 0.03 µM; in [6], 1.1 ± 0.47 µM; in test [7], 1.3 ± 0.27 µM. In addition, the dissociation constant KD in test [8] is recorded as 1.7 ± 0.48 µM; in [9] it was 4.6 ± 1.4 µM; in test [10], > 10 µM; in [11] it was 0.25 ± 0.06 µM; in test [12], 0.9 ± 0.2 µM; in test [13], 1.1 ± 0.44 µM. Moreover, the KD in test [14] was found to be 0.33 ± 0.12 µM; in [15], 0.23 µM; in [16], 0.62 ± 0.19 µM.

For orientation: KD means the constant that tells how readily two partners part at equilibrium. High values mean lower affinity, low ones higher affinity.
